The target of one assay is T1, human LXRα (Homo sapiens, UniProt Q13133).
T1 construct: biotin (biotinylated); made in house; host or cells: E. coli (crude extract)
T1 sequence (Q13133 1-447): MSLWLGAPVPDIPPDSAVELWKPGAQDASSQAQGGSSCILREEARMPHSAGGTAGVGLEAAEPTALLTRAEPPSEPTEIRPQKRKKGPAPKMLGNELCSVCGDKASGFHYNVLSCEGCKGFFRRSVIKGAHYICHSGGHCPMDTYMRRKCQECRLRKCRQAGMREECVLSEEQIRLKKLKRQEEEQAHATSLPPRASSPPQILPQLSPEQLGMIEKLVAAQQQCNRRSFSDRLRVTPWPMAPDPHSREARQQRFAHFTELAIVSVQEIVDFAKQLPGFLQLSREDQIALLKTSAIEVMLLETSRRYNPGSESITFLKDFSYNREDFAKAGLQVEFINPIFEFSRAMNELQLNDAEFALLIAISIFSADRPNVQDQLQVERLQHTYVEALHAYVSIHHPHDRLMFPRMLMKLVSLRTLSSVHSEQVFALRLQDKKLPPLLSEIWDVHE
Description: Ligand-binding test procedure for human LXRα (3H T0901317 tracer, flash plates). The conditions noted are these: biotinylated hLXRα, tracer 3H T0901317. As to the method: Receptor source: E. coli extract from cells expressing biotinylated hLXRcc. Extract was made in a similar buffer as above, but with 50 mM TRIS.
Washed streptavidin and coated flash plates with wash buffer. Diluted receptor extract to give Bmax ˜4000 cpm and add to the wells. Wrapped the plates in aluminum foil and stored them at +4° C. over night.
(§1) Made a dilution series in DMSO of the test ligands. Made a 5 nM solution of the radioactive tracer in buffer. Mixed 250 μl diluted tracer with 5 μl of the test ligand from each concentration of the dilution series. Washed the receptor-coated flash plates. Added 200 μl per well of the ligand/radiolabel mixture to the receptor-coated flash plates. Wrapped the plates in aluminum foil and incubate at +4° C. over night.
Aspirated wells, and wash the flashed plates. Sealed the plate. Measured the remaining radioactivity in the plate.

A further assay concerns the target T2, human LXRβ (Homo sapiens, UniProt P55055).
T2 construct: biotin (biotinylated); made in house; host or cells: E. coli (crude extract)
T2 sequence (P55055 1-460): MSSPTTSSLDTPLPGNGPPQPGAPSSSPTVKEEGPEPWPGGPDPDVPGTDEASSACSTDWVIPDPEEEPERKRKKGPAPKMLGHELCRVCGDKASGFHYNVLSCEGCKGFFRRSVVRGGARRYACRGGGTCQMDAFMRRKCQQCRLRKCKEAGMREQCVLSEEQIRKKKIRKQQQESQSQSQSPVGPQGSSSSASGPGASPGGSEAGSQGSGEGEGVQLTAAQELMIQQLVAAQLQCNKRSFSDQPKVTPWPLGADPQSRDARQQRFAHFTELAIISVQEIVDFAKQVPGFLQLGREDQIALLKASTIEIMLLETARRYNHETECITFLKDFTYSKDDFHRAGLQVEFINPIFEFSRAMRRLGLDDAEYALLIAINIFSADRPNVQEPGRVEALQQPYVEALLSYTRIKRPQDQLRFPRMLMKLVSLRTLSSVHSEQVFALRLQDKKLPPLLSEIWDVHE
The experiment in a line: Ligand-binding test procedure for human LXRβ (3H T0901317 tracer, flash plates). As for the experimental part: Receptor source: E. coli extracted from cells expressing biotinylated hLXRβ. Extract was made in a similar buffer as above, but with 50 mM TRIS.
Washed streptavidin and coated flash plates with wash buffer. Diluted receptor extract to give Bmax ˜4000 cpm and add to the wells. Wrapped the plates in aluminum foil and stored them at +4° C. overnight.
as §1
Aspirated wells, and washed the flashed plates. Sealed the plate. Measured the remaining radioactivity in the plate.

Some results are limits rather than exact numbers.

Take `CCc1nc2c(C(F)(F)F)cccc2n1-c1ccc(OCc2cccc(S(C)(=O)=O)c2)cc1` [Example 85, 2-ethyl-1-(4-{[3-(methylsulfonyl)benzyl]oxy}phenyl)-4-(trifluoromethyl)-1H-benzimidazole]: the IC50 (in general, the concentration that gives 50% inhibition) turned out to be 5070 nM at human LXRα and 1890 nM at human LXRβ.

On to `CS(=O)(=O)c1cccc(COc2ccc(-n3c(C(F)(F)F)nc4c(C(F)(F)F)cccc43)cc2)c1` [Example 86, 1-(4-{[3-(methylsulfonyl)benzyl]oxy}phenyl)-2,4-bis(trifluoromethyl)-1H-benzimidazole], for which the 50% inhibitory concentration (IC50) at human LXRα and on human LXRβ was over 1000 nM each time.

On to `Cc1nc2c(C(F)(F)F)cccc2n1-c1ccc(OCc2cccc(S(C)(=O)=O)c2)cc1` [Example 87, 2-methyl-1(4-{[3-(methylsulfonyl)benzyl]oxy}phenyl)-4-(trifluoromethyl)-1H-benzimidazole], for which the IC50 on human LXRα and on human LXRβ was over 1000 nM in each case.

Turning to `CCc1nc2c(C(F)(F)F)cccc2n1-c1ccc(Oc2ccc(C#N)c(S(C)(=O)=O)c2)cc1` [Example 88, 4-{4-[2-ethyl-4-(trifluoromethyl)-1H-benzimidazol-1-yl]phenoxy}-2-(methylsulfonyl)benzonitrile], the results for the IC50 at human LXRα and at human LXRβ were 15100 nM and 1920 nM, respectively.

As for `Cc1cc(Oc2cccc(S(C)(=O)=O)c2)ccc1-n1cnc2c(C(F)(F)F)cccc21` [Example 90, 1-{2-methyl-4-[3-(methylsulfonyl)phenoxy]phenyl}-4-(trifluoromethyl)-1H-benzimidazole], the values for the IC50 at human LXRα and on human LXRβ were 6530 nM and 802 nM, respectively.

For `CCS(=O)(=O)c1cccc(Oc2ccc(-n3cnc4c(C(F)(F)F)cccc43)c(C)c2)c1` [Example 91, 1-{4-[3-(ethylsulfonyl)phenoxy]-2-methylphenyl}-4-(trifluoromethyl)-1H-benzimidazole], the IC50 on human LXRα is 6110 nM; on human LXRβ, 634 nM.

As for `Cc1cc(Oc2cccc(S(=O)(=O)C(C)C)c2)ccc1-n1cnc2c(C(F)(F)F)cccc21` [Example 92, 1-(2-methyl-4-{3-[(1-methylethyl)sulfonyl]phenoxy}phenyl)-4-(trifluoromethyl)-1H-benzimidazole], the IC50 was 3260 nM on human LXRα and 348 nM at human LXRβ.

Take `Cc1cc(Oc2cccc(S(C)(=O)=O)c2)ccc1-n1c(C)nc2c(C(F)(F)F)cccc21` [Example 93, 2-methyl-1-{2-methyl-4-[3-(methylsulfonyl)phenoxy]phenyl}-4-(trifluoromethyl)-1H-benzimidazole]: the IC50 on human LXRα was determined as 2780 nM; on human LXRβ it was 191 nM.

For `CCS(=O)(=O)c1cccc(Oc2ccc(-n3c(C)nc4c(C(F)(F)F)cccc43)c(C)c2)c1` [Example 94], the figures for the IC50 on human LXRα and on human LXRβ were 2100 nM and 122 nM, respectively.

Consider `Cc1cc(Oc2cc(F)cc(S(C)(=O)=O)c2)ccc1-n1cnc2c(C(F)(F)F)cccc21` [Example 96, 1-{4-[3-fluoro-5-(methylsulfonyl)phenoxy]-2-methylphenyl}-4-(trifluoromethyl)-1H-benzimidazole], for which the IC50 at human LXRα was 16000 nM; on human LXRβ it was 2620 nM.

Turning to `CCS(=O)(=O)c1cc(F)cc(Oc2ccc(-n3cnc4c(C(F)(F)F)cccc43)c(C)c2)c1` [Example 97, 1-{4-[3-(ethylsulfonyl)-5-fluorophenoxy]-2-methylphenyl}-4-(trifluoromethyl)-1H-benzimidazole], the IC50 turned out to be 8000 nM at human LXRα and 1110 nM at human LXRβ.

In the case of `Cc1cc(Oc2ccc(S(C)(=O)=O)cc2)ccc1-n1cnc2c(C(F)(F)F)cccc21` [Example 98, 1-{2-methyl-4-[4-(methylsulfonyl)phenoxy]phenyl}-4-(trifluoromethyl)-1H-benzimidazole], the 50% inhibitory concentration (IC50) stood at 5200 nM at human LXRα and 581 nM at human LXRβ.

With `CCS(=O)(=O)c1cc(F)cc(Oc2ccc(-n3c(C)nc4c(C(F)(F)F)cccc43)c(C)c2)c1` [Example 99], the IC50 is 3690 nM on human LXRα and 301 nM at human LXRβ.

Take `Cc1cc(Oc2ccc(S(C)(=O)=O)cc2)ccc1-n1c(C)nc2c(C(F)(F)F)cccc21` [Example 100, 2-methyl-1-{2-methyl-4-[4-(methylsulfonyl)phenoxy]phenyl}-4-(trifluoromethyl)-1H-benzimidazole]: the half-inhibitory concentration (IC50) amounted to 12000 nM at human LXRα and 1310 nM on human LXRβ.

For the compound `Cc1cc(Oc2cc(F)cc(S(C)(=O)=O)c2)ccc1-n1c(C)nc2c(C(F)(F)F)cccc21` [Example 101, 1-{4-[3-fluoro-5-(methylsulfonyl)phenoxy]-2-methylphenyl}-2-methyl-4-(trifluoromethyl)-1H-benzimidazole], the 50% inhibitory concentration (IC50) at human LXRα was found to be 4830 nM; on human LXRβ it was 405 nM.

Take `Cc1nc2c(C(F)(F)F)cccc2n1-c1ccc(Oc2cccc(S(C)(=O)=O)c2)cc1Cl` [Example 102, 1-{2-chloro-4-[3-(methylsulfonyl)phenoxy]phenyl}-2-methyl-4-(trifluoromethyl)-1H-benzimidazole]: the concentration for half-maximal inhibition (IC50) was found to be 1960 nM at human LXRα and 304 nM at human LXRβ.

Take `Cc1nc2c(C(F)(F)F)cccc2n1-c1ccc(Oc2cc(F)cc(S(C)(=O)=O)c2)cc1Cl` [Example 103, 1-{2-chloro-4-[3-fluoro-5-(methylsulfonyl)phenoxy]phenyl}-2-methyl-4-(trifluoromethyl)-1H-benzimidazole]: the half-inhibitory concentration (IC50) came out at 2670 nM on human LXRα and 235 nM at human LXRβ.

`CS(=O)(=O)c1cccc(Oc2ccc(-n3cnc4c(C(F)(F)F)cccc43)c(Cl)c2)c1` [Example 104, 1-{2-chloro-4-[3-(methylsulfonyl)phenoxy]phenyl}-4-(trifluoromethyl)-1H-benzimidazole]: the results for the IC50 on human LXRα and on human LXRβ were 2580 nM and 479 nM, respectively.

In the case of `CCS(=O)(=O)c1cccc(Oc2ccc(-n3cnc4c(C(F)(F)F)cccc43)c(Cl)c2)c1` [Example 105, 1-{2-chloro-4-[3-(ethylsulfonyl)phenoxy]phenyl}-4-(trifluoromethyl)-1H-benzimidazole], the 50% inhibitory concentration (IC50) is 2710 nM at human LXRα and 357 nM on human LXRβ.

On to `CS(=O)(=O)c1cc(F)cc(Oc2ccc(-n3cnc4c(C(F)(F)F)cccc43)c(Cl)c2)c1` [Example 106, 1-{2-chloro-4-[3-fluoro-5-(methylsulfonyl)phenoxy]phenyl}-4-(trifluoromethyl)-1H-benzimidazole], for which the IC50 at human LXRα came to 3990 nM; on human LXRβ it was 1230 nM.

For the origin of these results see patent US20110034526A1, “Benzimidazole Compounds” (Wyeth LLC, priority 2007, published 2011).
